Measured values published in patent US20240158446A1, “CYCLIC COMPOUND HAVING SELECTIVE INHIBITORY ACTION ON KRAS OVER HRAS AND NRAS” (CHUGAI SEIYAKU KABUSHIKI KAISHA, priority 2021, published 2024).
Read-outs that look alike come from different tables or passages of the source. Where a SMILES comes first, the peptide text is derived from it. Bridges are numbered along the chain shown (N, C = ends). [ ]: non-standard residue; d: D form. The star is where a group is joined. hPhe(3,5-F2-4-CF3) = N[C@@H](CCc1cc(F)c(C(F)(F)F)c(F)c1)C(=O)O; hPhe(3-Cl-4-CF3) = N[C@@H](CCc1ccc(C(F)(F)F)c(Cl)c1)C(=O)O; NPrPhe(4-CF3) = CCCN[C@@H](Cc1ccc(C(F)(F)F)cc1)C(=O)O; NMeAbu(4,4,4-F3) = CN[C@@H](CC(F)(F)F)C(=O)O; NMePhe(4-Me) = CN[C@@H](Cc1ccc(C)cc1)C(=O)O; NMeGly(cPent) = CN[C@H](C(=O)O)C1CCCC1; Pro(4,4-F2) = O=C(O)[C@@H]1CC(F)(F)CN1; cisHyp = O=C(O)[C@@H]1C[C@H](O)CN1; NMeD = CN[C@@H](CC(=O)O)C(=O)O; NMeL = CN[C@@H](CC(C)C)C(=O)O; Morpholide = C1CN(*)CCO1; NMeA = CN[C@@H](C)C(=O)O; Ac5c = NC1(C(=O)O)CCCC1; Aze = O=C(O)[C@@H]1CCN1; NEtG = CCNCC(=O)O; Sar = CNCC(=O)O

Columns and labels:
[1] = target: GDP-bound KRAS wild-type protein (Homo sapiens, UniProt P01116); test: Binding to KRAS by surface plasmon resonance (SPR), Single Cycle Kinetics; details: GDP-bound KRAS wild-type protein, read-out: KRAS KD
Sequence of GDP-bound KRAS wild-type protein (P01116 whole entry): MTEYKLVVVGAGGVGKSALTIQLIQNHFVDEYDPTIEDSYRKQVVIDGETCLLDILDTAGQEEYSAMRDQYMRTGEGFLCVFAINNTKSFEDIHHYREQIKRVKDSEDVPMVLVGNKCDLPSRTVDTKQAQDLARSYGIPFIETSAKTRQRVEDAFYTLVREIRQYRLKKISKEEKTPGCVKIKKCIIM

[2] = target: GDP-bound NRAS wild-type protein (Homo sapiens, UniProt P01111); test: Binding to NRAS by surface plasmon resonance (SPR), Single Cycle Kinetics; details: SPR, GDP-bound NRAS wild-type protein vs GDP-bound KRAS wild-type protein
Sequence of GDP-bound NRAS wild-type protein (P01111 whole entry): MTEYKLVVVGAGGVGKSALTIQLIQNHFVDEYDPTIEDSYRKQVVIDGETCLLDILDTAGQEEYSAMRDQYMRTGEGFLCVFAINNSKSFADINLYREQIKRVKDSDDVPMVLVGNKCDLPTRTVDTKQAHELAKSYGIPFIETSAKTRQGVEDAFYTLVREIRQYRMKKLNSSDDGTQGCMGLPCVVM

[3] = target: GDP-bound HRAS wild-type protein (Homo sapiens, UniProt P01112); test: Binding to HRAS by surface plasmon resonance (SPR), Single Cycle Kinetics; details: SPR, GDP-bound HRAS wild-type protein vs GDP-bound KRAS wild-type protein
Sequence of GDP-bound HRAS wild-type protein (P01112 whole entry): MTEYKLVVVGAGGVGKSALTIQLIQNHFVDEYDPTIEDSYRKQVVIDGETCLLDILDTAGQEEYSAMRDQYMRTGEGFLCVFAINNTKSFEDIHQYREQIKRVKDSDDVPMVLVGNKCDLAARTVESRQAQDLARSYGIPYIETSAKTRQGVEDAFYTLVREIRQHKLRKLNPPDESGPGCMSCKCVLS

[4] = SPR Single Cycle Kinetics, 1:1 binding model

SMILES | Kd ([1]; SPR, Single Cycle Kinetics) | NRAS/KRAS (ratio of KD value for NRAS to KD value for KRAS) [2] | HRAS/KRAS (ratio of KD value for HRAS to KD value for KRAS) [3] | Kd [1, 4] | further results
CCO[C@@H]1C[C@H]2C(=O)NC3(CCC3)C(=O)N(C)[C@@H](C3CCCC3)C(=O)N(C)[C@H](C(=O)N(C)C)CC(=O)N(C)[C@@H](Cc3ccccc3)C(=O)N[C@@H]([C@@H](C)CC)C(=O)N(C)CC(=O)N(C)[C@H]3C/C=C\CCN(C3=O)[C@@H](Cc3ccc(C(F)(F)F)cc3)C(=O)N(C)CC(=O)N[C@@H](CCc3cc(F)c(C(F)(F)F)c(F)c3)C(=O)N2C1 [PP1116, (2S,8S,12R,14S,20S,23S,27S,30S,36S,38Z)-27-benzyl-20-cyclopentyl-8-[2-[3,5-difluoro-4-(trifluoromethyl)phenyl]ethyl]-12-ethoxy-N,N,4,19,22,26,32,35-octamethyl-30-[(1S)-1-methylpropyl]-3,6,9,15,18,21,25,28,31,34,42-undecaoxo-2-[[4-(trifluoromethyl)phenyl]methyl]spiro[1,4,7,10,16,19,22,26,29,32,35-undecazatricyclo[34.5.1.0^10,14]dotetracont-38-ene-17,1′-cyclobutane]-23-carboxamide] | 0.069 nM | A (a compound having 10 or more and less than 20 is denoted as A) | A (a compound having 10 or more and less than 20 is denoted as A) | – | –
CCCN1C(=O)CN(C)C(=O)CN(C)C(=O)[C@H]([C@@H](C)CC)NC(=O)[C@H](CC(C)C)N(C)C(=O)C[C@@H](C(=O)N(C)C)N(C)C(=O)[C@H](CC(F)(F)F)N(C)C(=O)C2(CCCC2)NC(=O)[C@@H]2CCCN2C(=O)[C@H](CCc2cc(F)c(C(F)(F)F)c(F)c2)NC(=O)CN(C)C(=O)[C@@H]1Cc1ccc(C(F)(F)F)cc1 [PP0746] ([NMeL]I[Sar][Sar][NPrPhe(4-CF3)][Sar][hPhe(3,5-F2-4-CF3)]P[Ac5c][NMeAbu(4,4,4-F3)][NMeD]-NMe2; lactam N-11) | – | – | – | 0.43 nM | NRAS/KRAS (ratio of KD value with respect to NRAS to KD value with respect to KRAS) [2]: B (a compound having 3 or more and less than 10 is denoted as B); HRAS/KRAS (ratio of KD value with respect to HRAS to KD value with respect to KRAS) [3]: C (A compound having a KD ratio of 0.1 or more and less than 3 is denoted as C)
CCO[C@@H]1C[C@H]2C(=O)NC3(CCC3)C(=O)N(C)[C@@H](C(CC)CC)C(=O)N(C)[C@H](C)CC(=O)N(C)[C@@H](CC3CCCC3)C(=O)N[C@@H]([C@@H](C)CC)C(=O)N(C)CC(=O)N(C)[C@H]3C/C=C\CCN(C3=O)[C@@H](Cc3ccc(F)cc3C)C(=O)N(C)CC(=O)N[C@@H](CCc3cc(F)c(C(F)(F)F)c(F)c3)C(=O)N2C1 [PP1522] | – | – | – | – | Kd ([1]; SPR, Single Cycle Kinetics, 1:1 binding model): 8.8 nM; NRAS/KRAS (ratio of KD value for NRAS to KD value for KRAS) ([2]; KD ratio class): A (a compound having 10 or more and less than 20 is denoted as A); HRAS/KRAS (ratio of KD value for HRAS to KD value for KRAS) ([3]; KD ratio class): A (a compound having 10 or more and less than 20 is denoted as A)
CCCN1C(=O)CN(C)C(=O)CN(C)C(=O)[C@H]([C@@H](C)CC)NC(=O)[C@H](CC(C)C)N(C)C(=O)C[C@@H](C(=O)N(C)C)NC(=O)[C@H](C2CCCC2)N(C)C(=O)C2(CCCC2)NC(=O)[C@@H]2CC(F)(F)CN2C(=O)[C@H](CCc2ccc(C(F)(F)F)c(Cl)c2)NC(=O)CN(C)C(=O)[C@@H]1Cc1ccc(C(F)(F)F)cc1 [PP0357] ([NMeL]I[Sar][Sar][NPrPhe(4-CF3)][Sar][hPhe(3-Cl-4-CF3)][Pro(4,4-F2)][Ac5c][NMeGly(cPent)]D-NMe2; lactam N-11) | – | B (a compound having 3 or more and less than 10 is denoted as B) | B (a compound having 3 or more and less than 10 is denoted as B) | 0.4 nM | –
CCO[C@@H]1C[C@H]2C(=O)NC3(CCC3)C(=O)N(C)[C@@H](C3CCCC3)C(=O)N(C)[C@H](C(=O)N(C)C)CC(=O)N(C)[C@@H](CC)C(=O)N[C@@H]([C@@H](C)CC)C(=O)N(C)[C@@H](C)C(=O)N(C)[C@H]3C/C=C\CCN(C3=O)[C@@H](Cc3ccc(C(F)(F)F)cc3)C(=O)N(C)CC(=O)N[C@@H](CCc3cc(F)c(C(F)(F)F)c(F)c3)C(=O)N2C1 [PP1054] | 3.9 nM | A (a compound having 10 or more and less than 20 is denoted as A) | B (a compound having 3 or more and less than 10 is denoted as B) | – | –
CCO[C@@H]1C[C@H]2C(=O)NC3(CCCC3)C(=O)N(C)[C@@H](C3CCCC3)C(=O)N(C)[C@H](C(=O)N(C)C)CC(=O)N(C)[C@@H](CC(C)C)C(=O)N[C@@H]([C@@H](C)CC)C(=O)N(C)CC(=O)N(C)[C@H]3CC(C)=C(C)CN(C3=O)[C@@H](Cc3ccc(C(F)(F)F)cc3)C(=O)N(C)CC(=O)N[C@@H](CCc3cc(F)c(C(F)(F)F)c(F)c3)C(=O)N2C1 [PP1045] | 1.7 nM | C (A compound having a KD ratio of 0.1 or more and less than 3 is denoted as C) | C (A compound having a KD ratio of 0.1 or more and less than 3 is denoted as C) | – | –
CC[C@H](C)[C@@H]1NC(=O)[C@H](CC(C)C)N(C)C(=O)C[C@@H](C(=O)N2CCOCC2)N(C)C(=O)[C@H](C2CCCC2)N(C)C(=O)C2(CCCC2)NC(=O)[C@@H]2CCCN2C(=O)[C@H](CCc2ccc(C(F)(F)F)c(Cl)c2)NC(=O)CN(C)C(=O)[C@H](Cc2ccc(C)cc2)N(C)C(=O)CN(CC)C(=O)CN(C)C1=O [PP0019] ([NMeL]I[Sar][NEtG][NMePhe(4-Me)][Sar][hPhe(3-Cl-4-CF3)]P[Ac5c][NMeGly(cPent)][NMeD]-Morpholide; lactam N-11) | – | C (A compound having a KD ratio of 0.1 or more and less than 3 is denoted as C) | C (A compound having a KD ratio of 0.1 or more and less than 3 is denoted as C) | 0.34 nM | –
CCO[C@@H]1C[C@H]2C(=O)NC3(CC(C)(C)C3)C(=O)N(C)[C@@H](C(CC)CC)C(=O)N(C)[C@H](C(=O)N3CCCC3)CC(=O)N(C)[C@@H](COC)C(=O)N[C@@H]([C@@H](C)CC)C(=O)N(C)CC(=O)N(C)[C@H]3C/C=C\CCN(C3=O)[C@@H](Cc3ccc(C(F)(F)F)cc3)C(=O)N(C)CC(=O)N[C@@H](CCc3ccc(Cl)c(Cl)c3)C(=O)N2C1 [PP2174] | 0.4 nM | AA (a compound having 20 or more is denoted as AA) | A (a compound having 10 or more and less than 20 is denoted as A) | – | –
CCCN1C(=O)[C@@H]2CCN2C(=O)[C@H](C)N(C)C(=O)[C@H]([C@@H](C)CC)NC(=O)[C@H](CC(C)C)N(C)C(=O)C[C@@H](C(=O)N2CCOCC2)N(C)C(=O)[C@H](C2CCCC2)N(C)C(=O)C2(CCCC2)NC(=O)[C@@H]2C[C@H](OCC)CN2C(=O)[C@H](CCc2ccc(C(F)(F)F)c(Cl)c2)NC(=O)CN(C)C(=O)[C@@H]1Cc1ccc(C(F)(F)F)cc1 [PP0242] ([NMeL]I[NMeA][Aze][NPrPhe(4-CF3)][Sar][hPhe(3-Cl-4-CF3)][cisHyp](Et)[Ac5c][NMeGly(cPent)][NMeD]-Morpholide; lactam N-11) | – | C (A compound having a KD ratio of 0.1 or more and less than 3 is denoted as C) | C (A compound having a KD ratio of 0.1 or more and less than 3 is denoted as C) | 0.2 nM | –
